According to the NIST ThermoML archive (doi:10.1021/je500305u):
Numbers after ± are expanded uncertainties.

Assay: mn = molality of the nth substance listed, in mol/kg
Details: Liquid, Vibrating tube method

A mass density (283 K, m1 = 0.89) of 1084 ± 54 kg/m3, a mass density (288 K, m1 = 0.89) of 1083 ± 54 kg/m3 and a mass density (293 K, m1 = 0.89) of 1081 ± 54 kg/m3 were found for NCCS(=O)(=O)[O-].[K+] [potassium taurate] + O in this work. It also gave a mass density (293 K, m1 = 1.6) of 1145 ± 58 kg/m3, a mass density (298 K, m1 = 0.89) of 1079 ± 54 kg/m3 and a mass density (298 K, m1 = 1.6) of 1143 ± 58 kg/m3. For the same molecule, the mass density (303 K, m1 = 0.89) was 1078 ± 54 kg/m3, the mass density (303 K, m1 = 1.6) was 1141 ± 58 kg/m3 and the mass density (308 K, m1 = 0.89) was 1076 ± 54 kg/m3. It also gave a mass density (308 K, m1 = 1.6) of 1139 ± 58 kg/m3, a mass density (313 K, m1 = 0.89) of 1073 ± 54 kg/m3 and a mass density (313 K, m1 = 1.6) of 1136 ± 58 kg/m3. It also gave a mass density (318 K, m1 = 0.89) of 1071 ± 54 kg/m3, a mass density (318 K, m1 = 1.6) of 1134 ± 58 kg/m3 and a mass density (323 K, m1 = 0.89) of 1069 ± 53 kg/m3. It also gave a mass density (323 K, m1 = 1.6) of 1131 ± 58 kg/m3, a mass density (328 K, m1 = 0.89) of 1066 ± 53 kg/m3 and a mass density (328 K, m1 = 1.6) of 1129 ± 57 kg/m3. For the same molecule, the mass density (333 K, m1 = 0.89) was 1064 ± 53 kg/m3, the mass density (333 K, m1 = 1.6) was 1126 ± 57 kg/m3 and the mass density (338 K, m1 = 0.89) was 1061 ± 53 kg/m3. It also gave a mass density (338 K, m1 = 1.6) of 1123 ± 57 kg/m3, a mass density (343 K, m1 = 0.89) of 1058 ± 53 kg/m3 and a mass density (343 K, m1 = 1.6) of 1120 ± 57 kg/m3. For the same molecule, the mass density (348 K, m1 = 1.6) was 1117 ± 56 kg/m3, the mass density (353 K, m1 = 0.89) was 1051 ± 53 kg/m3 and the mass density (353 K, m1 = 1.6) was 1114 ± 57 kg/m3. For the same molecule, the mass density (358 K, m1 = 1.6) was 1111 ± 56 kg/m3, the mass density (363 K, m1 = 1.6) was 1108 ± 56 kg/m3 and the mass density (373 K, m1 = 0.89) was 1037 ± 52 kg/m3. For the same molecule, the mass density (373 K, m1 = 1.6) was 1101 ± 56 kg/m3, the mass density (393 K, m1 = 0.89) was 1021 ± 51 kg/m3 and the mass density (393 K, m1 = 1.6) was 1086 ± 55 kg/m3.
A mass density (293 K, 101 kPa, m1 = 0.99) of 1065 ± 53 kg/m3, a mass density (293 K, 101 kPa, m1 = 1.78) of 1130 ± 58 kg/m3 and a mass density (298 K, 101 kPa, m1 = 0.99) of 1064 ± 53 kg/m3 were found for NCC(=O)[O-].[K+] [potassium glycinate] + O in this work. It also gave a mass density (298 K, 101 kPa, m1 = 1.78) of 1128 ± 57 kg/m3, a mass density (303 K, 101 kPa, m1 = 0.99) of 1062 ± 53 kg/m3 and a mass density (303 K, 101 kPa, m1 = 1.78) of 1126 ± 57 kg/m3. The mass density (308 K, 101 kPa, m1 = 0.99) was 1060 ± 53 kg/m3, the mass density (308 K, 101 kPa, m1 = 1.78) was 1124 ± 57 kg/m3 and the mass density (313 K, 101 kPa, m1 = 0.99) was 1058 ± 53 kg/m3. For the same molecule, the mass density (313 K, 101 kPa, m1 = 1.78) was 1121 ± 57 kg/m3, the mass density (318 K, 101 kPa, m1 = 0.99) was 1056 ± 53 kg/m3 and the mass density (318 K, 101 kPa, m1 = 1.78) was 1119 ± 57 kg/m3. The mass density (323 K, 101 kPa, m1 = 0.99) was 1053 ± 53 kg/m3, the mass density (323 K, 101 kPa, m1 = 1.78) was 1116 ± 57 kg/m3 and the mass density (328 K, 101 kPa, m1 = 0.99) was 1051 ± 53 kg/m3. It also gave a mass density (328 K, 101 kPa, m1 = 1.78) of 1114 ± 57 kg/m3, a mass density (333 K, 101 kPa, m1 = 0.99) of 1048 ± 52 kg/m3 and a mass density (333 K, 101 kPa, m1 = 1.78) of 1111 ± 57 kg/m3. For the same molecule, the mass density (338 K, 101 kPa, m1 = 0.99) was 1045 ± 52 kg/m3, the mass density (338 K, 101 kPa, m1 = 1.78) was 1108 ± 56 kg/m3 and the mass density (343 K, 101 kPa, m1 = 0.99) was 1042 ± 52 kg/m3. The mass density (343 K, 101 kPa, m1 = 1.78) was 1105 ± 56 kg/m3, the mass density (348 K, 101 kPa, m1 = 0.99) was 1039 ± 52 kg/m3 and the mass density (348 K, 101 kPa, m1 = 1.78) was 1102 ± 56 kg/m3. For the same molecule, the mass density (353 K, 101 kPa, m1 = 0.99) was 1036 ± 52 kg/m3, the mass density (353 K, 101 kPa, m1 = 1.78) was 1099 ± 56 kg/m3 and the mass density (358 K, 101 kPa, m1 = 0.99) was 1033 ± 52 kg/m3. It also gave a mass density (358 K, 101 kPa, m1 = 1.78) of 1096 ± 56 kg/m3, a mass density (363 K, 101 kPa, m1 = 0.99) of 1030 ± 52 kg/m3 and a mass density (363 K, 101 kPa, m1 = 1.78) of 1093 ± 56 kg/m3. For the same molecule, the mass density (373 K, 101 kPa, m1 = 0.99) was 1023 ± 51 kg/m3, the mass density (373 K, 101 kPa, m1 = 1.78) was 1086 ± 55 kg/m3 and the mass density (393 K, 101 kPa, m1 = 0.99) was 1007 ± 50 kg/m3.
